Reference: ChEMBL document CHEMBL5104133, “Sortase A-mediated cyclization of novel polycyclic RGD peptides for ανβ3 integrin targeting” (Bioorg Med Chem Lett, 2022)

Tests used:
[1] = target: T1, Integrin alpha-V/beta-3 (Homo sapiens, UniProt P05106+P06756); assay: Inhibition of alphavbeta3 integrin receptor-mediated cell adhesion to fibrinogen in human SK-OV-3 cells […] integrin receptor; format: cell-based
[2] = target: T1, Integrin alpha-V/beta-3; assay: Inhibition of alphavbeta3 integrin receptor-mediated cell adhesion to fibrinogen in human HEK293 cells; format: cell-based
[3] = target: Integrin alpha-V/beta-5 (Homo sapiens, UniProt P06756+P18084); assay: Inhibition of alphavbeta5 integrin receptor-mediated cell adhesion to vitronectin in human HT-29 cells; format: cell-based
Integrin alpha-V/beta-5, sequence (P06756 31-889 limits assumed): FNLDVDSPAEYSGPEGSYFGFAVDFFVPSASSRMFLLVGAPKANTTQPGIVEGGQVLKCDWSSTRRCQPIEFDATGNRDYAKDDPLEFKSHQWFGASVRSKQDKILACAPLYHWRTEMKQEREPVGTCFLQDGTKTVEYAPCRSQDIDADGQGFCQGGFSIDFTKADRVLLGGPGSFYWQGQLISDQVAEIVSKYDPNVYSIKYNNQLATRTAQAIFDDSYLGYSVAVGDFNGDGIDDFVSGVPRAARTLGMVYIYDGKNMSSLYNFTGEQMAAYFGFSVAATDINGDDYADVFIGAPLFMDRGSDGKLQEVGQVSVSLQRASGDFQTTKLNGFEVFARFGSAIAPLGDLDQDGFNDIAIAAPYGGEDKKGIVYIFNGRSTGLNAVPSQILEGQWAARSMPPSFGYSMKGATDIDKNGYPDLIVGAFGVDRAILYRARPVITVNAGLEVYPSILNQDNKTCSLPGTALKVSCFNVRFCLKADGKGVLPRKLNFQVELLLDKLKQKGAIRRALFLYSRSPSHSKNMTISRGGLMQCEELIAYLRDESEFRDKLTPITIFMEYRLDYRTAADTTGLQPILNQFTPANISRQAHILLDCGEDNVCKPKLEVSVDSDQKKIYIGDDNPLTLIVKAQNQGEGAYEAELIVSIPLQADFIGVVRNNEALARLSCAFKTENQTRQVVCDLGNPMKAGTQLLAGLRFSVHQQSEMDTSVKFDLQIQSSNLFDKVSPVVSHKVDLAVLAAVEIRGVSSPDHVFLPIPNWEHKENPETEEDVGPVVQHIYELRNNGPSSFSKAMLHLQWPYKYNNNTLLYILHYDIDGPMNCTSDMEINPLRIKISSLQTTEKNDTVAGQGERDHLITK
Integrin alpha-V/beta-5, sequence (P06756 891-1048 limits assumed): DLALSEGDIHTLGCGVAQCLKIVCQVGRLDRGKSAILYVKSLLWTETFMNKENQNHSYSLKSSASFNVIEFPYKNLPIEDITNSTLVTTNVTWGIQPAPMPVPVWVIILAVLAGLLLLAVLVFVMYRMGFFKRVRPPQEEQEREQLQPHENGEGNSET
Integrin alpha-V/beta-5, sequence (P18084 24-799 limits assumed): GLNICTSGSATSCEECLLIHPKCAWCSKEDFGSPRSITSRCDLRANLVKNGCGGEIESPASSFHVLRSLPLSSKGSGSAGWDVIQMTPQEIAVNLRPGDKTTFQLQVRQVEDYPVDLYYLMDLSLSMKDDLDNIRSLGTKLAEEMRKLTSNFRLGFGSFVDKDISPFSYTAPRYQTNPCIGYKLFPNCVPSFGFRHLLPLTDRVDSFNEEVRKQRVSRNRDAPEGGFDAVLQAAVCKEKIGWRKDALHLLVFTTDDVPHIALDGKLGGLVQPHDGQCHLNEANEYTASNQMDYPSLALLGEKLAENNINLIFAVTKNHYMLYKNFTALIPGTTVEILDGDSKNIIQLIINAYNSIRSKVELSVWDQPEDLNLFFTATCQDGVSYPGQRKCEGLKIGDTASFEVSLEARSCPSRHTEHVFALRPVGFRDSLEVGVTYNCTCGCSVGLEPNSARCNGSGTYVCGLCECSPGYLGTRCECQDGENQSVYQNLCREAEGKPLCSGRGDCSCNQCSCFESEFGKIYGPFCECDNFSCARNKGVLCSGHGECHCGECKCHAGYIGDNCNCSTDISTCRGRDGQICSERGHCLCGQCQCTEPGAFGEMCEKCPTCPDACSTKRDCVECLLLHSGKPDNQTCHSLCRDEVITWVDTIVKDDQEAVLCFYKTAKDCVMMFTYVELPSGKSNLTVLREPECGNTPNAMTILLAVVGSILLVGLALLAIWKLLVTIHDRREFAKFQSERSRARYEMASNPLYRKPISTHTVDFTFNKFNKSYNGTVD

[4] = species on record: Homo sapiens; assay: Selectivity ratio of IC50 for alphavbeta5 integrin receptor-mediated cell adhesion to vitronectin in human HT-29 cells to IC50 for alphavbeta3 integrin receptor-mediated cell adhesion to fibrinogen in human HEK293 cells; format: cell-based
[5] = target: Integrin alpha-IIb/beta-3 (Homo sapiens, UniProt P05106+P08514); assay: Inhibition of alpha2bbeta3 integrin receptor expressed on human surface of platelets; format: cell-based, Platelet
[6] = target: Integrin alpha-5/beta-1 (Homo sapiens, UniProt P05556+P08648); assay: Inhibition of alpha5beta1 integrin receptor expressed on human surface of adipose tissue-derived stem cells; format: cell-based, Adipose tissue derived mesenchymal stem cell
Integrin alpha-5/beta-1, sequence (P05556 21-798 limits assumed): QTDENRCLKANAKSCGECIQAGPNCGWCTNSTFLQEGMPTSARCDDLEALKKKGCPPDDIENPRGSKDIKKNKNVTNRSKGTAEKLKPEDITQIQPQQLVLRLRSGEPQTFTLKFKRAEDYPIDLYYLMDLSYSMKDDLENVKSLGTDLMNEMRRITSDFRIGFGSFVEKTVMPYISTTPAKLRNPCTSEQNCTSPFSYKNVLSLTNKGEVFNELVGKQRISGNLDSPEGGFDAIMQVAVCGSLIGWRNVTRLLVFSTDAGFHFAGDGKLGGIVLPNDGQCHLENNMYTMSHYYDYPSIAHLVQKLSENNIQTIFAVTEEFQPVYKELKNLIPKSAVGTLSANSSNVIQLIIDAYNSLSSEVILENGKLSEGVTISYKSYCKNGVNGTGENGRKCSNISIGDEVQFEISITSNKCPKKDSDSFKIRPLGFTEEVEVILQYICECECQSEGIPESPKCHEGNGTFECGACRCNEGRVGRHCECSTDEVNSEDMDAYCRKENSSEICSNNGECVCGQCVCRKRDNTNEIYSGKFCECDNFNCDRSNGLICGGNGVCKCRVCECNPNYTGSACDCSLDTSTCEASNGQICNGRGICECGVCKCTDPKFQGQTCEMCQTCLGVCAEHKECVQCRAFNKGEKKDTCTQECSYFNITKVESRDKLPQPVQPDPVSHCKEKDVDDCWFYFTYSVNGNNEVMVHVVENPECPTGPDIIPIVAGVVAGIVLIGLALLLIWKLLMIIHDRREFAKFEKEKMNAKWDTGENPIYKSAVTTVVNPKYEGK
Integrin alpha-5/beta-1, sequence (P08648 42-894 limits assumed): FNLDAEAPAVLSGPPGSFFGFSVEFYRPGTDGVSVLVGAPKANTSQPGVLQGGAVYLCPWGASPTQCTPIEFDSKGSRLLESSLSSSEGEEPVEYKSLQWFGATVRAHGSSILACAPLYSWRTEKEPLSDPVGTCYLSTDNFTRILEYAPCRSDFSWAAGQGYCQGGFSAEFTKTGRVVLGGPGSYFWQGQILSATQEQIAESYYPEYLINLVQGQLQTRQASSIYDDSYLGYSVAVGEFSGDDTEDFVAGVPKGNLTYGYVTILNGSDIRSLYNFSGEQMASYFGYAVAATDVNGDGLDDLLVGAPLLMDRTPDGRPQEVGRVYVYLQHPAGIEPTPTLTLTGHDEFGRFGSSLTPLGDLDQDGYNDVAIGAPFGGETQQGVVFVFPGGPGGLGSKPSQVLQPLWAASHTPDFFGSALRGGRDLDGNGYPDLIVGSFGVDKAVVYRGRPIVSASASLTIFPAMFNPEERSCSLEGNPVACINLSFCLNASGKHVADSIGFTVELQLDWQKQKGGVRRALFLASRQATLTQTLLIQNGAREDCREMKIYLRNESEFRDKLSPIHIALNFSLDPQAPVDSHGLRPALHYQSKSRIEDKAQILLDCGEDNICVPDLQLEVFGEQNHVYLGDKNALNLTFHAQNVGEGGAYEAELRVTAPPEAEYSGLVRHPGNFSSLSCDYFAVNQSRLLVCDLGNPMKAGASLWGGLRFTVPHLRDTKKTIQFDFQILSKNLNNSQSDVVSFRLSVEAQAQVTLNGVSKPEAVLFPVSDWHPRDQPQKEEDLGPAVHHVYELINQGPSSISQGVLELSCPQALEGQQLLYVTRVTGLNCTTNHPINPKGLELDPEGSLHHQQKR
Integrin alpha-5/beta-1, sequence (P08648 895-1049 limits assumed): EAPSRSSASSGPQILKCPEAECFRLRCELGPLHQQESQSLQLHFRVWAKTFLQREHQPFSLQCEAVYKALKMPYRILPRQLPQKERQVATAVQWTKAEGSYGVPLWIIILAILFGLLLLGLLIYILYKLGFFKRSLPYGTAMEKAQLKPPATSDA

T1 sequence (P05106 27-788 limits assumed): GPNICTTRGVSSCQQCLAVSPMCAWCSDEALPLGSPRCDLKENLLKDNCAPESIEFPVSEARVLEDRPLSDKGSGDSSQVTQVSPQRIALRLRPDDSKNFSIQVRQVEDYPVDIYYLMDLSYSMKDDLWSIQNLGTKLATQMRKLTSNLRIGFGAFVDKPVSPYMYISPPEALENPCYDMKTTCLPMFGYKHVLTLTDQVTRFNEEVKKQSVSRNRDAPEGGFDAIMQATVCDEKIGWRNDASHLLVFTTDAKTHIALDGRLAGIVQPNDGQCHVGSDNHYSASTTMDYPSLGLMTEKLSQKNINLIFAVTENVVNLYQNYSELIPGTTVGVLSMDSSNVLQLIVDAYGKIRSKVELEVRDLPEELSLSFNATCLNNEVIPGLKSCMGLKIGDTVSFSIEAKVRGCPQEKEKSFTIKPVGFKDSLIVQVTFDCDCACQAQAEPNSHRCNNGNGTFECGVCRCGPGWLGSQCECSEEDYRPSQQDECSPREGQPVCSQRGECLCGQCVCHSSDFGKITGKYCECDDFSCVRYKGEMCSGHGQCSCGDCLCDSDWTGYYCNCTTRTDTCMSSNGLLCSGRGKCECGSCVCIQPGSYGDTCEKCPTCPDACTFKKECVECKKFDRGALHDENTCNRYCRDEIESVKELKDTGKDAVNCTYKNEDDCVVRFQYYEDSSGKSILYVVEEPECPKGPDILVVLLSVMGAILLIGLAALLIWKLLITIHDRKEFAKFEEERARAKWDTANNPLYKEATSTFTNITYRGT
T1 sequence (P06756 31-889 limits assumed): as the sequence (P06756 31-889 limits assumed) above
T1 sequence (P06756 891-1048 limits assumed): as the sequence (P06756 891-1048 limits assumed) above

Row | Compound | IC50 [1] [µM] | IC50 [2] [µM] | IC50 [3] [µM] | Ratio IC50 [4] | IC50 [5] [µM] | IC50 [6] [µM]
1 | CC(C)C[C@@H]1NC(=O)[C@@H]2CSSC[C@@H]3NC(=O)[C@H](CSSC[C@H](NC(=O)[C@H](C(C)C)NC(=O)[C@@H](Cc4ccccc4)NC(=O)[C@H](CC(=O)O)NC(=O)CNC(=O)[C@H](CCCNC(=N)N)NC3=O)C(=O)N[C@@H](CCCNC(=N)N)C(=O)NCC(=O)N[C@@H](CC(=O)O)C(=O)N[C@H](Cc3ccccc3)C(=O)N[C@@H](C(C)C)C(=O)N2)NC(=O)CNC(=O)CNC(=O)[C@H]([C@@H](C)O)NC(=O)[C@H](CCCCN)NC(=O)[C@@H]2CCCN2C1=O | 34 | 8.43 | 208 | 0.041 | > 1 | 0.154
2 | CC(C)C[C@@H]1NC(=O)[C@@H]2CSCc3cc4cc(c3)CSC[C@H](NC(=O)[C@H](C(C)C)NC(=O)[C@@H](Cc3ccccc3)NC(=O)[C@H](CC(=O)O)NC(=O)CNC(=O)[C@H](CCCNC(=N)N)NC(=O)[C@H](CSC4)NC(=O)CNC(=O)CNC(=O)CNC(=O)[C@H]([C@H](C)O)NC(=O)[C@H](CCCCN)NC(=O)[C@@H]3CCCN3C1=O)C(=O)N[C@@H](CCCNC(=N)N)C(=O)NCC(=O)N[C@H](CC(=O)O)C(=O)N[C@H](Cc1ccccc1)C(=O)N[C@H](C(C)C)C(=O)N2 | 25.1 | 0.2 | 30.2 | 0.006 | > 1 | 0.154
